In brackets after ≈: the same amount, converted by molar mass. Several values for one entry are separate records, joined by “and”; a condition that tells them apart may be missing. Identical values can stand only once. Like-named read-outs stand apart in the source and are kept apart here. No end group written: not given here.
Key:
indicator strains = conditions: indicator strain not given; cited from earlier work
E. aerogenes LMG 02094 [1] = test: microbe, parasite or virus in culture; format: cell-based, Enterobacter aerogenes; conditions: LMG 02094
Experimental: (§1) Escherichia coli, Klebsiella pneumoniae, Pseudomonas aeruginosa, Acinetobacter baumannii, Enterobacter aerogenes were grown in Luria-Bertani (LB) broth shaken (200 rpm) or on LB agar at 37° C. […] MICs tests were performed in duplicate by a liquid growth inhibition microdilution assays in sterilized polypropylene microtiter plates according to Wiegand and […] [27]. […] The suspension was diluted in a ratio of 1:100 using Mueller Hinton Broth (MHB) and the final inoculum is 5*10^5 CFU/mL. […] The antimicrobials were diluted serially by 1/2 one by one and 50 uL diluted bacterial suspension were added to each well to make the final volume to be 100 uL. Growth control was accomplished by remove 10 uL from well 11 and dilute 1000 times to plate 1/10 suspension on the solid medium. […] The number of colonies on the control agar plate should be around 50 to ensure the concentration of the inoculum and the effectiveness of the experiment. The lowest concentration of the antimicrobials that inhibits visible growth of the indicator is identified as MIC.

P. aeruginosa LMG 6395 [2] = format: cell-based, Pseudomonas aeruginosa
Source text: (§2) The test of synergistic effect was processed by conducting standard chequerboard broth microdilution assays. Nisin (Drug X) was loaded two fold serially diluted from row 1 to 10 in X-axis while GNPs (Drug Y) were loaded in eight two fold serially diluted concentrations from line A to H in Y-axis (FIG. 1). The original concentrations of peptides were MICs of each. Row 11 are used as growth control with no peptide was included, while row 12 with MHB medium-only wells was included as a sterility control as referred before. 50 uL fresh bacterial suspension was added to well 1-11 and final volume of each well on the plate is 100 uL.
(§3) To determine whether the combination therapy is additive, synergistic or antagonistic, fractional inhibitory concentration (FIC) indices were calculated. FICI=FICa+FICb=MICac/MICa+MICbc/MICb. The MICa/MICb is the MIC of compound A/B alone. MICac is the MIC of compound A in combination with compound B and MICbc is the MIC of compound B when it was combination with compound A. […]. FICa is FIC of compound A while FICb is FIC of compound B. The FICI is interpreted as follows: synergistic, FICI≤0.5; additive, 0.5<FICI<1; indifferent, 1<FICI<2; antagonistic, FICI>2.

K. pneumoniae LMG20218 [3] = format: cell-based, Klebsiella pneumoniae
Source text: as §2, §3

E. aerogenes LMG 02094 [4] = format: cell-based, Enterobacter aerogenes
Source text: as §2, §3

A. baumannii LMG01041 [5] = format: cell-based, Acinetobacter baumannii
Source text: as §2, §3

P. aeruginosa LMG 6395 [6] = test: microbe, parasite or virus in culture; format: cell-based, Pseudomonas aeruginosa; conditions: LMG 6395
Experimental: as §1

A. baumannii LMG01041 [7] = conditions: MIC of GNP alone
Experimental: (§4) The test of synergistic effect was processed by conducting standard chequerboard broth microdilution assays. […] Row 11 are used as growth control with no peptide was included, while row 12 with MHB medium-only wells was included as a sterility control as referred before. 50 uL fresh bacterial suspension was added to well 1-11 and final volume of each well on the plate is 100 uL.
(§5) The test of synergistic effect was processed as method 1.4.
as §3

K. pneumoniae LMG20218 [8] = tested on: K. pneumoniae LMG20218
Experimental: as §4, §5, §3

E. coli LMG15862 [9] = tested on: E. coli LMG15862
Experimental: as §4, §5, §3

E. aerogenes LMG 02094 [10] = tested on: E. aerogenes LMG 02094
Experimental: as §4, §5, §3

P. aeruginosa LMG 6395 [11] = tested on: P. aeruginosa LMG 6395
Experimental: as §4, §5, §3

E. coli LMG15862 [12] = test: microbe, parasite or virus in culture; format: cell-based, Escherichia coli; conditions: for MICb (GNP concentration when used alone): L-form GNP, E. coli LMG15862, Table 6
Experimental: as §1

K. pneumoniae LMG20218 [13] = test: microbe, parasite or virus in culture; format: cell-based, Klebsiella pneumoniae; conditions: LMG20218
Experimental: as §1

L. lactis MG1363 = conditions: MG1363
A. baumannii LMG01041 [14] = test: microbe, parasite or virus in culture; format: cell-based, Acinetobacter baumannii; conditions: LMG01041
Experimental: as §1

E. coli LMG15862 [15] = format: cell-based, Escherichia coli
Source text: as §2, §3

[16] = cited from earlier work
Gram-negative pathogens = format: cell-based; conditions: L-form GNPs alone; five Gram-negative pathogens
Experimental: as §1

[17] = MIC of GNP when used with the MICac concentration of nisin
[18] = MIC of nisin in combination with the GNP at the MICbc concentration
[19] = MIC of GNP in combination with vancomycin at the MICac concentration
[20] = MIC of vancomycin in combination with the GNP at the MICbc concentration

CN[C@H](CC(C)C)C(=O)N[C@H]1C(=O)N[C@@H](CC(N)=O)C(=O)N[C@H]2C(=O)N[C@H]3C(=O)N[C@H](C(=O)N[C@H](C(=O)O)c4cc(O)cc(O)c4-c4cc3ccc4O)[C@H](O)c3ccc(c(Cl)c3)Oc3cc2cc(c3O[C@@H]2O[C@H](CO)[C@@H](O)[C@H](O)[C@H]2O[C@H]2C[C@](C)(NCc3ccc(-c4ccc(Cl)cc4)cc3)[C@H](O)[C@H](C)O2)Oc2ccc(cc2Cl)[C@H]1O [Compound 1, Chlorobiphenyl Vancomycin]
Biological activity (relative to the wild type) (indicator strains): Increased (Increased activity, >120% compared with the activity of vancomycin)

CC[C@H](C)[C@H](NC(=O)[C@H](CCCNC(=N)N)NC(=O)[C@H](CCC(N)=O)NC(=O)[C@@H](NC(=O)[C@@H](NC(=O)[C@@H](N)CCCNC(=N)N)[C@@H](C)CC)C(C)C)C(=O)N[C@@H](CCCCN)C(=O)N[C@@H](CCCCN)C(=O)N[C@@H](Cc1c[nH]c2ccccc12)C(=O)N[C@@H](CC(C)C)C(=O)N[C@@H](CCCNC(=N)N)C(N)=O [GNP-8]
MIC value (E. aerogenes LMG 02094 [1]): 128 µM (≈ 191 µg/mL)
MICb (MIC of GNP alone) (E. aerogenes LMG 02094 [1]): 128 µM
MICb (P. aeruginosa LMG 6395 [2]; MIC of GNP alone): 16 µM
MICbc (P. aeruginosa LMG 6395 [2]; [17]): 0.5 µM
MICac (P. aeruginosa LMG 6395 [2]; [18]): 4.5 µM
MICb (K. pneumoniae LMG20218 [3]; MIC of GNP alone): 32 µM
MICbc (K. pneumoniae LMG20218 [3]; [17]): 1 µM
MICac (K. pneumoniae LMG20218 [3]; [18]): 0.75 µM
MICb (E. aerogenes LMG 02094 [4]; MIC of GNP alone): 128 µM
MICbc (E. aerogenes LMG 02094 [4]; [17]): 1 µM
MICac (E. aerogenes LMG 02094 [4]; [18]): 4 µM
MICb (A. baumannii LMG01041 [5]; MIC of GNP alone): >64 µM
MICbc (A. baumannii LMG01041 [5]; [17]): 4 µM
MICac (A. baumannii LMG01041 [5]; [18]): 0.19 µM
MIC value (P. aeruginosa LMG 6395 [6]): 16 µM (≈ 23.9 µg/mL)
MICb (MIC of GNP alone) (P. aeruginosa LMG 6395 [6]): 16 µM
MICb (A. baumannii LMG01041 [7]): >64 µM
MICb (K. pneumoniae LMG20218 [8]; MIC of GNP alone): 32 µM
MICbc (K. pneumoniae LMG20218 [8]; [19]): 2 µM and 1 µM
MICac (K. pneumoniae LMG20218 [8]; [20]): 4 µM and 8 µM
MICb (E. coli LMG15862 [9]; MIC of GNP alone): 12 µM
MICbc (E. coli LMG15862 [9]; [19]): 1.5 µM and 0.75 µM
MICac (E. coli LMG15862 [9]; [20]): 4 µM and 8 µM
MICb (E. aerogenes LMG 02094 [10]; MIC of GNP alone): 128 µM
MICbc (E. aerogenes LMG 02094 [10]; [19]): 8 µM and 16 µM
MICac (E. aerogenes LMG 02094 [10]; [20]): 12 µM and 6 µM
MICb (P. aeruginosa LMG 6395 [11]; MIC of GNP alone): 16 µM
MICbc (P. aeruginosa LMG 6395 [11]; [19]): 2 µM and 1 µM
MICac (P. aeruginosa LMG 6395 [11]; [20]): 8 µM and 16 µM
MICb (GNP concentration when used alone) (E. coli LMG15862 [12]): 12 µM
MIC value (E. coli LMG15862 [12]; LMG15862): 12 µM (≈ 17.9 µg/mL)
MIC value (K. pneumoniae LMG20218 [13]): 32 µM (≈ 47.8 µg/mL)
MICb (MIC of GNP alone) (K. pneumoniae LMG20218 [13]): 32 µM
MIC value of antimicrobial compounds alone (L. lactis MG1363): 24 µM
MIC value (A. baumannii LMG01041 [14]): >64 µM
MICb (MIC of GNP alone) (A. baumannii LMG01041 [14]): >64 µM
MICb (E. coli LMG15862 [15]; MIC of GNP alone): 12 µM
MICbc (E. coli LMG15862 [15]; [17]): 1.5 µM
MICac (E. coli LMG15862 [15]; [18]): 1.5 µM

CCCCCCCCCCNCCN[C@@]1(C)C[C@H](O[C@H]2[C@H](Oc3c4cc5cc3Oc3ccc(cc3Cl)[C@@H](O)[C@@H](NC(=O)[C@@H](CC(C)C)NC)C(=O)N[C@@H](CC(N)=O)C(=O)N[C@H]5C(=O)N[C@H]3C(=O)N[C@H](C(=O)N[C@H](C(=O)O)c5cc(O)c(CNCP(=O)(O)O)c(O)c5-c5cc3ccc5O)[C@H](O)c3ccc(c(Cl)c3)O4)O[C@H](CO)[C@@H](O)[C@@H]2O)O[C@@H](C)[C@H]1O [Telavancin]
Biological activity (relative to the wild type) (indicator strains): Increased (Increased activity, >120% compared with the activity of vancomycin)

Chlorobiphenyl Des-methyl vancomycin [Compound 8]
Biological activity (relative to the wild type) (indicator strains): Increased (Increased activity, >120% compared with the activity of vancomycin)

K12V (ITSISLCTPGCVTGALMGCNMKTATCHCSIHVSK; cysteine pairing not given here; also: lantibiotic nisin-A; UniProt P13068 24-57, looked up, variant K12V)
Biological activity (relative to the wild type) ([16]; gene nisA (nisin A mutants)): Increased (Increased activity, >120% compared to the activity of wild type nisin A/Z)

K22S (ITSISLCTPGCKTGALMGCNMSTATCHCSIHVSK; cysteine pairing not given here; also: lantibiotic nisin-A; UniProt P13068 24-57, looked up, variant K22S)
Biological activity (relative to the wild type) ([16]; gene nisA (nisin A mutants)): Increased (Increased activity, >120% compared to the activity of wild type nisin A/Z)

M21V (ITSISLCTPGCKTGALMGCNVKTATCHCSIHVSK; cysteine pairing not given here; also: lantibiotic nisin-A; UniProt P13068 24-57, looked up, variant M21V)
Biological activity (relative to the wild type) ([16]; gene nisA (nisin A mutants)): Increased (Increased activity, >120% compared to the activity of wild type nisin A/Z)

N20P (ITSISLCTPGCKTGALMGCPMKTATCHCSIHVSK; not fully specified; cysteine pairing not given here; also: lantibiotic nisin-A; UniProt P13068 24-57, looked up, variant N20P)
Biological activity (relative to the wild type) ([16]; gene nisA (nisin A mutants)): Increased (Increased activity, >120% compared to the activity of wild type nisin A/Z)

N20V (ITSISLCTPGCKTGALMGCVMKTATCHCSIHVSK; not fully specified; cysteine pairing not given here; also: lantibiotic nisin-A; UniProt P13068 24-57, looked up, variant N20V)
Biological activity (relative to the wild type) ([16]; gene nisZ (nisin Z mutants)): Increased (Increased activity, >120% compared to the activity of wild type nisin A/Z)

RIWVIWRR-NH2 [GNP-5]
MICb (MIC of GNP alone) (E. aerogenes LMG 02094 [1]): 5 µM
Activity ranking amongst all the GNPs (Gram-negative pathogens): most potent
MICb (MIC of GNP alone) (P. aeruginosa LMG 6395 [6]): 3 µM
MICb (GNP concentration when used alone) (E. coli LMG15862 [12]): 3 µM
MICb (MIC of GNP alone) (K. pneumoniae LMG20218 [13]): 6 µM
MICb (MIC of GNP alone) (A. baumannii LMG01041 [14]): 2 µM

Teicoplanin [2a]
Biological activity (relative to the wild type) (indicator strains): Increased (Increased activity, >120% compared with the activity of vancomycin)

Reference: patent US20200368315A1, “ANTIMICROBIAL PEPTIDES AND ADMIXTURES THEREOF SHOWING ANTIMICROBIAL ACTIVITY AGAINST GRAM-NEGATIVE PATHOGENS” (priority 2017, published 2020)
